This is an account of results in US9981940B2, “Aryl sulfide derivatives and aryl sulfoxide derivatives as acaricides and insecticides” (BAYER CROPSCIENCE AKTIENGESELLSCHAFT, priority 2013, dated 2018).

Series [1] in a line: log P by HPLC (OECD Guideline 117), method [b] neutral range. The series is classed as physicochemical. Conditions: HPLC; for logP[b]: method [b] neutral range; for chromatographic logP: reversed-phase C18 HPLC column, neutral range, pH 7.8. The procedure: (§1) The log P values were determined analogously to OECD Guideline 117 (EC Directive 92/69/EEC) by HPLC (high-performance liquid chromatography) using reversed-phase columns (C 18), by the following methods:
[b] The LC-MS determination in the neutral range is effected at pH 7.8 with 0.001 molar aqueous ammonium hydrogencarbonate solution and acetonitrile as eluents; linear gradient from 10% acetonitrile to 95% acetonitrile.

In series [2] the test system is Tetranychus urticae. The experiment in a line: Tetranychus urticae spray test, OP-resistant (TETRUR). The settings on record: application rate of 500 g/ha, after 6 days; for pest or weed control at 500 g/ha: Tetranychus urticae, 144 h, read-out: efficacy. The series is classed as in vivo. The method in brief: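 Mortality as % efficacy (0% = no mites killed) read 6 days after spraying. Formulation: active ingredient in acetone/dimethylformamide plus emulsifier, diluted with emulsifier-containing water, applied to Phaseolus vulgaris leaf discs carrying every life stage of OP-resistant spider mites.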

A short description of series [3]: log P by HPLC (OECD Guideline 117), method [a] acidic range. Type of series: physicochemical. The settings on record: for logP[a]: HPLC, method [a] acidic range; for chromatographic logP: reversed-phase C18 HPLC column, acidic range. The procedure:
as §1
[a] The LC-MS determination in the acidic range is effected at pH 2.7 with 0.1% aqueous formic acid and acetonitrile (contains 0.1% formic acid) as eluents; linear gradient from 10% acetonitrile to 95% acetonitrile.

[4] abbreviates: pH 2.7, HPLC method [a], read-out: logP[a].
The mark [5] stands for this setting: pH 2.7, HPLC, pH 2.7, read-out: log P[a].

`CCOc1nn(-c2cc([S+]([O-])CC(F)(F)F)c(C)cc2F)c(=O)n1CC` (stereo not shown) [Example 409]: in series [1], the “logP[b]” value was 2.44. In series [2], this compound showed an efficacy of 90%. In addition, the “logP[a]” value in series [3] is reported as 2.44.
As for `Cc1cc(F)c(-n2nc(OCc3ccccc3)n(C3CC3)c2=O)cc1SCC(F)(F)F` [Example 410], in series [1], the “logP[b]” value was 4.25. For the same compound, the efficacy in series [2] is 100%. Also, the “logP[a]” value in series [3] is 4.32.
In the case of `COc1nn(-c2cc([S+]([O-])CC(F)(F)F)c(C)cc2F)c(=O)n1CC1CC1` (stereo not shown) [Example 412], in series [1], the “logP[b]” value worked out at 2.52. The efficacy in series [2] is 100%. Further, the “logP[a]” value in series [3] is recorded as 2.54.
The matching figures for `COc1nn(-c2cc([S+]([O-])CC(F)(F)F)c(C)cc2F)c(=O)n1C(C)C` (stereo not shown) [Example 413]: 2.40, 90% and 2.44.
The matching figures for `Cc1cc(F)c(-n2nc(OCc3ccccc3)n(C3CC3)c2=O)cc1[S+]([O-])CC(F)(F)F` (stereo not shown) [Example 414]: 3.19, 100% and 3.24.
Taken in the same sequence, the figures for `Cc1cc(F)c(-n2nc(N(C)C)n(C3CC3)c2=O)cc1SCC(F)(F)F` [Example 416] were 3.80, 90% and 3.86.
With `Cc1cc(F)c(-n2nc(C(C)C)n(N)c2=O)cc1S(=O)(=O)CC(F)(F)F` [Example 417], the “logP[b]” value in series [1] stood at 2.21. In series [2], the efficacy was 100%. Also, in series [3], the “logP[a]” value is given as 2.25.
On to `COn1c(C(C)C)nn(-c2cc(SCC(F)(F)F)c(C)cc2F)c1=O` [Example 418], for which, in series [1], the “logP[b]” value came out at 3.49. For the same compound, the efficacy in series [2] is 90%. Moreover, the “logP[a]” value in series [3] is given as 3.52.
As to `COn1c(C(C)C)nn(-c2cc([S+]([O-])CC(F)(F)F)c(C)cc2F)c1=O` (stereo not shown) [Example 419], the “logP[b]” value in series [1] came to 2.42. The compound further came in with an efficacy in series [2] of 100%. Besides, in series [3], the “logP[a]” value came to 2.46.
For `Cc1cc(F)c(-n2nc(S(C)(=O)=O)n(C)c2=O)cc1SCC(F)(F)F` [Example 420, 2-{2-Fluoro-4-methyl-5-[(2,2,2-trifluoroethyl)sulphanyl]phenyl}-4-methyl-5-(methylsulphonyl)-2,4-dihydro-3H-1,2,4-triazol-3-one], the chromatographic logP in series [1] came out at 2.77; in series [3] (setting [4]), 2.7; in series [3] (setting [5]), 2.7. Also, the pest or weed control at 500 g/ha in series [2] stood at 90%.
For `Cc1cc(F)c(-n2nc(S(C)(=O)=O)n(C)c2=O)cc1[S+]([O-])CC(F)(F)F` (stereo not shown) [Example 421, 2-{2-Fluoro-4-methyl-5-[(2,2,2-trifluoroethyl)sulphinyl]phenyl}-4-methyl-5-(methylsulphonyl)-2,4-dihydro-3H-1,2,4-triazol-3-one], the chromatographic logP was found to be 1.84 in series [1], 1.88 in series [3] (setting [4]) and 1.88 in series [3] (setting [5]). Further, the pest or weed control at 500 g/ha in series [2] was 100%.
Turning to `CCn1c(S(C)(=O)=O)nn(-c2cc([S+]([O-])CC(F)(F)F)c(C)cc2F)c1=O` (stereo not shown) [Example 422], the “logP[b]” value in series [1] was 2.11. The compound further gave an efficacy in series [2] of 100%. Further, in series [3], the “logP[a]” value was 2.12.
The matching figures for `C=CCn1c([S+]([O-])CC)nn(-c2cc([S+]([O-])CC(F)(F)F)c(C)cc2F)c1=O` (stereo not shown) [Example 424]: 2.04, 90% and 2.05.
Turning to `C=CCSc1nn(-c2cc(SCC(F)(F)F)c(C)cc2F)c(=O)n1C1CC1` [Example 425], the “logP[b]” value in series [1] is listed as 4.01. In series [2], this compound gave an efficacy of 100%. In addition, the “logP[a]” value in series [3] was 4.10.
With `C=CCn1c(SCCC)nn(-c2cc(SCC(F)(F)F)c(C)cc2F)c1=O` [Example 427], the “logP[b]” value in series [1] was 4.37. For the same compound, the efficacy in series [2] was 90%. The “logP[a]” value in series [3] is reported as 4.45.
Turning to `C=CCn1c(SCC)nn(-c2cc(SCC(F)(F)F)c(C)cc2F)c1=O` [Example 428], the “logP[b]” value in series [1] is on record as 3.96. For the same compound, the efficacy in series [2] worked out at 100%. Also, the “logP[a]” value in series [3] is given as 4.03.
In the case of `C=CCSc1nn(-c2cc(SCC(F)(F)F)c(C)cc2F)c(=O)n1CC=C` [Example 429], in series [1], the “logP[b]” value is 4.07. In series [2], this compound yielded an efficacy of 90%. Further, in series [3], the “logP[a]” value worked out at 4.13.
For the compound `C=CCn1c(SCCC)nn(-c2cc([S+]([O-])CC(F)(F)F)c(C)cc2F)c1=O` (stereo not shown) [Example 430], in series [1], the “logP[b]” value worked out at 3.33. In series [2], the efficacy was 90%. Also, the “logP[a]” value in series [3] was found to be 3.18.
Taken in the same sequence, the figures for `C=CCn1c(SCC)nn(-c2cc([S+]([O-])CC(F)(F)F)c(C)cc2F)c1=O` (stereo not shown) [Example 431] were 2.92, 90% and 2.83.
Taken in the same sequence, the figures for `Cc1cc(F)c(-n2nc(Br)n(C)c2=O)cc1[S+]([O-])CC(F)(F)F` (stereo not shown) [Example 433] were 1.99, 100% and 2.02.
As for `CCn1c(Cl)nn(-c2cc(SCC(F)(F)F)c(C)cc2F)c1=O` [Example 434], in series [1], the “logP[b]” value is recorded as 3.40. In series [2], this compound came in with an efficacy of 100%. Further, the “logP[a]” value in series [3] is listed as 3.45.
The matching figures for `CCn1c(Cl)nn(-c2cc([S+]([O-])CC(F)(F)F)c(C)cc2F)c1=O` (stereo not shown) [Example 436]: 2.30, 100% and 2.34.
Regarding `Cc1cc(F)c(-n2nc(Br)n(C(C)(C)C)c2=O)cc1SCC(F)(F)F` [Example 438], the “logP[b]” value in series [1] stood at 4.17. In addition, in series [2], the efficacy turned out to be 100%. Besides, the “logP[a]” value in series [3] is reported as 4.24.
Take `Cc1cc(F)c(-n2nc(Br)n(Cc3ccccc3)c2=O)cc1SCC(F)(F)F` [Example 440]: the “logP[b]” value in series [1] came to 4.13. The same compound came in with an efficacy in series [2] of 100%. Further, in series [3], the “logP[a]” value was 4.18.
The matching figures for `Cc1cc(F)c(-n2nc(Br)n(C(C)(C)C)c2=O)cc1[S+]([O-])CC(F)(F)F` (stereo not shown) [Example 441]: 2.98, 100% and 3.02.
Take `Cc1nn(-c2cc(SCC(F)(F)F)c(C)cc2F)c(=O)o1` [Example 448, 3-{2-Fluoro-4-methyl-5-[(2,2,2-trifluoroethyl)sulphanyl]phenyl}-5-methyl-1,3,4-oxadiazol-2(3H)-one]: the chromatographic logP in series [1] came to 3.09; in series [3] (setting [4]) it was 3.11; in series [3] (setting [5]), 3.11. The pest or weed control at 500 g/ha in series [2] worked out at 100%.
`Cc1cc(F)c(-n2nc(C(C)(C)C)oc2=O)cc1SCC(F)(F)F` [Example 449]: the “logP[b]” value in series [1] is given as 4.25. The efficacy in series [2] was 90%. Further, in series [3], the “logP[a]” value is reported as 4.30.
The matching figures for `COCc1nn(-c2cc(SCC(F)(F)F)c(C)cc2F)c(=O)o1` [Example 450]: 3.15, 100% and 3.18.
As to `Cc1nn(-c2cc([S+]([O-])CC(F)(F)F)c(C)cc2F)c(=O)o1` (stereo not shown) [Example 451, 3-{2-Fluoro-4-methyl-5-[(2,2,2-trifluoroethyl)sulphinyl]phenyl}-5-methyl-1,3,4-oxadiazol-2(3H)-one], the figures for the chromatographic logP in series [1], in series [3] (setting [4]) and in series [3] (setting [5]) were 2.02, 1.99 and 1.99, respectively. Further, the pest or weed control at 500 g/ha in series [2] turned out to be 90%.
`Cc1cc(F)c(-n2ncoc2=O)cc1SCC(F)(F)F` [Example 454]: in series [1], the “logP[b]” value is on record as 2.83. For the same compound, the efficacy in series [2] turned out to be 90%. Also, the “logP[a]” value in series [3] was 2.85.
Taken in the same sequence, the figures for `CCc1nn(-c2cc(SCC(F)(F)F)c(C)cc2F)c(=O)o1` [Example 455] were 3.46, 100% and 3.53.
Turning to `Cc1cc(F)c(-n2nc(C3CC3)oc2=O)cc1SCC(F)(F)F` [Example 456], in series [1], the “logP[b]” value is listed as 3.55. Besides, the efficacy in series [2] is reported as 100%. In series [3], the “logP[a]” value is 3.62.
Consider `Cc1cc(F)c(-n2nc(-c3ccccc3)oc2=O)cc1SCC(F)(F)F` [Example 457], for which the “logP[b]” value in series [1] was 4.29. The efficacy in series [2] is 90%. Moreover, the “logP[a]” value in series [3] is recorded as 4.35.
Taken in the same sequence, the figures for `Cc1cc(F)c(-n2nc(-c3ccc(Cl)cc3)oc2=O)cc1SCC(F)(F)F` [Example 458] were 4.78, 100% and 4.85.
The matching figures for `Cc1cc(F)c(-n2nc(-c3ccncc3)oc2=O)cc1SCC(F)(F)F` [Example 459]: 3.20, 90% and 3.20.
The matching figures for `CCCc1nn(-c2cc(SCC(F)(F)F)c(C)cc2F)c(=O)o1` [Example 460]: 3.92, 100% and 3.94.
In the case of `CCCCc1nn(-c2cc(SCC(F)(F)F)c(C)cc2F)c(=O)o1` [Example 461], the “logP[b]” value in series [1] stood at 4.33. Besides, in series [2], the efficacy was determined as 90%. Moreover, the “logP[a]” value in series [3] came out at 4.35.
